Measured values from patent US4859658A, “Compound compositions with improved analgesic antipyretic and anti-inflammatory activity” (Ricerfarma S.R.L., priority 1987, dated 1989).
Where two headings read alike, the source gives them in different places.

Assays:
[1] = cited from earlier work; for ED50: each compound alone, as reported by Maruyama Y. et al
[2] = system: carrageenin-induced oedema; test: Anti-inflammatory effect, rat paw oedema test; type: in vivo; conditions: oral gavage
Protocol: I. TEST MATERIALS: Thioacetamol, Indomethacin (Indomet)
The test drugs, suspended in 1% methyl cellulose (MC),
were administered by oral gavage to groups of male rats
(6 rats/group). Controls were given MC only.
2. Three hours following the test drug administration,
0.1 ml carrageenin (1% in saline) was injected
sub-plantar into the right hind paw. Identically
saline-injected left hind paw served
3. Readings were taken on each paw 3 hours following
injection of the test drug. The volume of both
hind paws was measured with an Hg-displacement
Volumeter (Huge, Basile, Italy).
Evaluation of anti-inflammatory activity was based on
the difference in volume (ΔV) between
the right (carrageenin-induced oedema) and left
(saline-control) hind paws.
Data was calculated by ranking ΔV values obtained
in drug-treated and control rats and expressed
percent increase over control for normal

[3] = single oral dose, cited from earlier work
[4] = cited from earlier work; for LD50: in vivo
yeast-induced fever = test: Anti-pyretic effect (yeast-induced) test in rats; type: in vivo, rat; conditions: oral gavage
Protocol: Anti-pyretic effect of Combination of Thiocetamol with Aspirin
(yeast-induced) test in rats
I. TEST MATERIALS: Thioacetamol, Aspirin
1. Fever in test animals was induced by subcutaneous
injection of yeast (10% in saline). Basal
rectal temperature (BRT) was determined in all
test animals with the aid of a YSI thermistor probe
2. Four hours after the yeast injection a test drug
suspended in 1% methyl cellulose (MC), was
administered by oral gavage to groups of
male rats (8 rats/group). Controls were
3. Measurements of rectal temperatures (ERT) in
response to the various treatments, were
carried out at 1, 3 and 5 hours after
the test drug administration.
Evaluation of anti-pyretic activity was based on the
temperature difference (Δt) between BRT and ERT at
each of the three respective test periods
for each treatment group.
Data was calculated by ranking Δt values obtained in
test drug-treated and control rats and expressed

[5] = in vivo, 500 mg/kg
Description: It must be also pointed out that the combination of very low doses of each component is not toxic.

hepatic parenchyma = conditions: compared with parent paracetamol; cited from earlier work

O=C(O)Cc1ccccc1Nc1c(Cl)cccc1Cl [Diclofenac]
ED50 [1]: 5 mg/kg

COc1ccc2c(c1)c(CC(=O)O)c(C)n2C(=O)c1ccc(Cl)cc1 [Indomethacin]
ΔV (percent over control) ([2]; 1 mg/kg): 85%
ΔV (percent over control) ([2]; 2 mg/kg): 63%
ΔV (percent over control) ([2]; 4 mg/kg): 58%
Gastric lesions ([3]; 3 mg/kg): 0%
Intestinal lesions ([3]; 3 mg/kg): 0%
Gastric lesions ([3]; 10 mg/kg): 100%
Intestinal lesions ([3]; 10 mg/kg): 30%
anti-inflammatory dose (ED50) ([1]; as reported): 3.5 mg/kg
ED50 [1]: 3.6 mg/kg
LD50 [4]: 15.2 mg/kg

CC(=O)Nc1ccc(OC(=O)c2cccs2)cc1 [Thiocetamol, p-acetamidophenyl thiophene-2-carboxylate]
ΔV (percent over control) ([2]; 150 mg/kg): 90%
ΔV (percent over control) ([2]; 300 mg/kg): 70%
ΔV (percent over control) ([2]; 600 mg/kg): 62%
Δt at 1 hour (yeast-induced fever; 75 mg/kg): 86%
Δt at 3 hour (yeast-induced fever; 75 mg/kg): 91%
Δt at 5 hour (yeast-induced fever; 75 mg/kg): 91%
Δt at 1 hour (yeast-induced fever; 150 mg/kg): 47%
Δt at 3 hour (yeast-induced fever; 150 mg/kg): 96%
Δt at 5 hour (yeast-induced fever; 150 mg/kg): 84%
Δt at 1 hour (yeast-induced fever; 300 mg/kg): 26%
Δt at 3 hour (yeast-induced fever; 300 mg/kg): 40%
Δt at 5 hour (yeast-induced fever; 300 mg/kg): 61%
toxic effects [5]: without any toxic effects
toxicity towards the hepatic parenchyma (hepatic parenchyma): remarkable lower toxicity towards the hepatic parenchyma
acute median lethal dose (LD50) ([4]; compared with parent paracetamol, in words): far lower than that of the parent paracetamol
LD50 [4]: around 2000 mg/kg

CC(C)Cc1ccc(C(C)C(=O)O)cc1 (stereo not drawn) [Ibuprofen]
ED50 [1]: 60 mg/kg

CC(=O)Oc1ccccc1C(=O)O [Aspirin]
Δt at 1 hour (yeast-induced fever; 50 mg/kg): 86%
Δt at 3 hour (yeast-induced fever; 50 mg/kg): 83%
Δt at 5 hour (yeast-induced fever; 50 mg/kg): 67%
Δt at 1 hour (yeast-induced fever; 100 mg/kg): 67%
Δt at 3 hour (yeast-induced fever; 100 mg/kg): 55%
Δt at 5 hour (yeast-induced fever; 100 mg/kg): 56%
Δt at 1 hour (yeast-induced fever; 200 mg/kg): 49%
Δt at 3 hour (yeast-induced fever; 200 mg/kg): 29%
Δt at 5 hour (yeast-induced fever; 200 mg/kg): 19%
Gastric lesions ([3]; 100 mg/kg): 0%
Intestinal lesions ([3]; 100 mg/kg): 0%
Gastric lesions ([3]; 300 mg/kg): 60%
Intestinal lesions ([3]; 300 mg/kg): 10%
Gastric lesions ([3]; 600 mg/kg): 100%
Intestinal lesions ([3]; 600 mg/kg): 10%
ED50 [1]: 500 mg/kg
LD50 [4]: 1000 mg/kg
